Laboratory results taken from PubChem BioAssay (NCI).
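Five concentrations, 48 hours, 96-well plates. TGI marks complete inhibition of growth.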

Columns and labels:
Test in all cases: growth of human tumour cells (NCI), 48 h
[1] = tested on: NCI/ADR-RES ovarian
[2] = tested on: MCF7 breast
[3] = tested on: HOP-62 NSCLC
[4] = tested on: SK-OV-3 ovarian
[5] = tested on: HCC-2998 colon
[6] = tested on: SNB-19 CNS
[7] = tested on: MOLT-4 leukemia
[8] = tested on: TK-10 renal
[9] = tested on: MDA-MB-231 breast
[10] = tested on: HCT-15 colon
[11] = tested on: CCRF-CEM leukemia
[12] = tested on: SK-MEL-5 melanoma
[13] = tested on: UO-31 renal
[14] = tested on: T-47D breast
[15] = tested on: UACC-62 melanoma
[16] = tested on: A549 NSCLC
[17] = tested on: IGROV1 ovarian
[18] = tested on: CAKI-1 renal
[19] = tested on: HCT-116 colon
[20] = tested on: MALME-3M melanoma
[21] = tested on: SN12C renal
[22] = tested on: RPMI-8226 leukemia
[23] = tested on: SW-620 colon
[24] = tested on: DU-145 prostate
[25] = tested on: OVCAR-3 ovarian
[26] = tested on: OVCAR-8 ovarian
[27] = tested on: COLO 205 colon
[28] = tested on: SF-268 CNS
[29] = tested on: PC-3 prostate
[30] = tested on: HL-60(TB) leukemia
[31] = tested on: SF-539 CNS
[32] = tested on: HS 578T breast
[33] = tested on: NCI-H522 lung
[34] = tested on: M14 melanoma
[35] = tested on: MDA-MB-435
[36] = tested on: NCI-H460 lung
[37] = tested on: NCI-H23 lung
[38] = tested on: ACHN renal
[39] = tested on: SF-295 CNS
[40] = tested on: KM12 colon
[41] = tested on: NCI-H226 lung
[42] = tested on: EKVX NSCLC
[43] = tested on: RXF 393 renal
[44] = tested on: A498 renal
[45] = tested on: OVCAR-5 ovarian
[46] = tested on: SK-MEL-28 melanoma
[47] = tested on: U251 CNS
[48] = tested on: SR leukemia
[49] = tested on: HT29 colon
[50] = tested on: SK-MEL-2 melanoma
[51] = tested on: MDA-N
[52] = tested on: K-562 leukemia
[53] = tested on: OVCAR-4 ovarian
[54] = tested on: SNB-75 CNS
[55] = tested on: BT-549 breast
[56] = tested on: HOP-92 NSCLC
[57] = tested on: UACC-257 melanoma
[58] = tested on: LOX IMVI melanoma
[59] = tested on: 786-0 renal

## COc1ccc(N2C(=O)C3c4[nH]c5ccccc5c4C4CCCCCCCC4C3C2=O)cc1 (stereo not given)
[1]
  TGI: > 10 µM
[2]
  TGI: > 10 µM
[3]
  TGI: > 10 µM
[4]
  TGI: > 10 µM
[5]
  TGI: > 10 µM
[6]
  TGI: > 10 µM
[7]
  TGI: > 10 µM
[8]
  TGI: > 10 µM
[9]
  TGI: > 10 µM
[10]
  TGI: > 10 µM
[11]
  TGI: 8.35 µM
[12]
  TGI: > 10 µM
[13]
  TGI: > 10 µM
[14]
  TGI: > 10 µM
[15]
  TGI: > 10 µM
[16]
  TGI: > 10 µM
[17]
  TGI: > 10 µM
[18]
  TGI: > 10 µM
[19]
  TGI: > 10 µM
[20]
  TGI: > 10 µM
[21]
  TGI: > 10 µM
[22]
  TGI: > 10 µM
[23]
  TGI: > 10 µM
[24]
  TGI: > 10 µM
[25]
  TGI: > 10 µM
[26]
  TGI: > 10 µM
[27]
  TGI: > 10 µM
[28]
  TGI: > 10 µM
[29]
  TGI: > 10 µM
[30]
  TGI: > 10 µM
[31]
  TGI: > 10 µM
[32]
  TGI: > 10 µM
[33]
  TGI: > 10 µM
[34]
  TGI: > 10 µM
[35]
  TGI: > 10 µM
[36]
  TGI: > 10 µM
[37]
  TGI: > 10 µM
[38]
  TGI: > 10 µM
[39]
  TGI: > 10 µM
[40]
  TGI: > 10 µM
[41]
  TGI: > 10 µM
[42]
  TGI: > 10 µM
[43]
  TGI: > 10 µM
[44]
  TGI: > 10 µM
[45]
  TGI: > 10 µM
[46]
  TGI: > 10 µM
[47]
  TGI: > 10 µM
[48]
  TGI: > 10 µM
[49]
  TGI: > 10 µM
[50]
  TGI: > 10 µM
[51]
  TGI: > 10 µM
[52]
  TGI: > 10 µM
[53]
  TGI: > 10 µM
[54]
  TGI: > 10 µM

## O=C(c1ccccn1)c1nnn2ccccc12
[2]
  TGI: > 100 µM
[3]
  TGI: > 100 µM
[4]
  TGI: > 100 µM
[5]
  TGI: > 100 µM
[6]
  TGI: > 100 µM
[7]
  TGI: > 100 µM
[8]
  TGI: > 100 µM
[9]
  TGI: > 100 µM
[10]
  TGI: > 100 µM
[11]
  TGI: > 100 µM
[12]
  TGI: > 100 µM
[14]
  TGI: > 100 µM
[15]
  TGI: > 100 µM
[16]
  TGI: > 100 µM
[17]
  TGI: > 100 µM
[18]
  TGI: > 100 µM
[19]
  TGI: > 100 µM
[20]
  TGI: > 100 µM
[21]
  TGI: > 100 µM
[22]
  TGI: > 100 µM
[23]
  TGI: > 100 µM
[24]
  TGI: > 100 µM
[25]
  TGI: > 100 µM
[26]
  TGI: > 100 µM
[27]
  TGI: > 100 µM
[28]
  TGI: > 100 µM
[29]
  TGI: > 100 µM
[30]
  TGI: > 100 µM
[55]
  TGI: > 100 µM
[31]
  TGI: > 100 µM
[32]
  TGI: > 100 µM
[56]
  TGI: > 100 µM
[33]
  TGI: > 100 µM
[34]
  TGI: > 100 µM
[35]
  TGI: > 100 µM
[36]
  TGI: > 100 µM
[37]
  TGI: > 100 µM
[38]
  TGI: > 100 µM
[39]
  TGI: > 100 µM
[57]
  TGI: > 100 µM
[40]
  TGI: > 100 µM
[41]
  TGI: > 100 µM
[42]
  TGI: > 100 µM
[58]
  TGI: > 100 µM
[44]
  TGI: > 100 µM
[45]
  TGI: > 100 µM
[46]
  TGI: > 100 µM
[47]
  TGI: > 100 µM
[48]
  TGI: > 100 µM
[49]
  TGI: > 100 µM
[50]
  TGI: > 100 µM
[51]
  TGI: > 100 µM
[52]
  TGI: > 100 µM
[53]
  TGI: > 100 µM
[59]
  TGI: > 100 µM
[54]
  TGI: > 100 µM
